Legend:
OX40 = molecular target: T1, OX40 (Homo sapiens, UniProt P43489); experiment: Promega OX40 cell-activity assay in co-culture with tumor cells (Nectin-4 positive 4T1-D02); type: cell-based; conditions: co-culture with Nectin-4 positive 4T1-D02 cells; compared to OX40L and non-binding control BCY12968
T1 construct: host or cells: OX40 Jurkat cells (NF-kB luciferase reporter)
T1 sequence (P43489 29-277): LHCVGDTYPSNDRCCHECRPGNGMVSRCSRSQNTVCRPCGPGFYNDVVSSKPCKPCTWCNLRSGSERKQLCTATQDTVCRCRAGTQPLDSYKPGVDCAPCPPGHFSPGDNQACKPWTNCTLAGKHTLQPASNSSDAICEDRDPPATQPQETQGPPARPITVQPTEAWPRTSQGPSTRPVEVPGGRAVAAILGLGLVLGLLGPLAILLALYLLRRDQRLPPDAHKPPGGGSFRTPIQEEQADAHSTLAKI
Description: Promega have developed an OX40 cell-activity assay that uses NF-κB luciferase luminescence as a read-out of OX40 activation in Jurkat cells (Promega CS197704). On the day of the experiment, prepare medium by thawing FBS and adding 5% FBS to RPMI-1640. Thaw OX40 Jurkat cells in the water-bath and then add 500 μl cells to 11.5 ml pre-warmed 5 FBS RPMI-1640 medium. Add 55 μl cells/well to white cell culture plates. Harvest tumor cells from culture. 4T1 is a Nectin-4 negative murine mammary gland epithelial cancer cell and it was genetically modified to express murine Nectin-4 on the cell surface (4T1 Nectin-4 positive; clone 4T1-D02). Tumor cells were cultured to 80% confluency in vitro in RPMI1640 medium supplemented with 10% heat-inactivated FBS, 1× Penicillin/Streptomycin, 1×L-Glutamine, 20 mM HEPES and 1×NEAA (RPMI working medium). Tumor cells were trypsinized and washed two times at 1500 rpm for 5 minutes in RPMI1640 working medium prewarmed to 37° C. Count cells and resuspend at 2,000,000 cells/mL in R5 media (for 10,000 cells/well). Add 5 μL of tumour cells per well.
Proceed to dilute agonists at concentration giving the maximum fold induction and then titrate down the amount in a sterile 96 well-plate. Prepare enough reagent for duplicate samples and then perform ⅓ dilution series or 1/10 dilution series. Include positive control OX40L trimer (AcroBiosystems, R&D systems) and negative control monomeric or non-binding peptides. Add 20 μl of agonist as duplicate samples or 5% FBS RPMI-1640 alone as background control.
Co-incubate cells together with agonists for 6 hours at 37° C., 5% CO2. After 6 hours, thaw Bio-Glo™ and develop the assay at room-temperature. Add 80 μl Bio-Glo™ per well and incubate 5-10 min. Read luciferase signal on CLAIROStar plate-reader using the MARS program and normalize the fold induction relative to background (medium alone). Analyse data by transforming the data to x=log (X), then plot log (agonist) vs. response variable slope (4 parameters) to calculate EC50 values.

human PBMCs = experiment: Human PBMC - tumor cell co-culture assay (IL-2 by HTRF); type: cell-based; conditions: anti-CD3 and anti-CD28 stimulation, 48 hours
Description: 4T1, a Nectin-4 negative murine mammary gland epithelial cancer cell (4T1 Nectin-4 −ve; 4T1-Parental) and its genetically modified version expressing murine Nectin-4 on the cell surface (4T1 Nectin-4 +ve; clone 4T1-D02) were cultured to 80% confluency in vitro in RPMI1640 medium supplemented with 10% heat-inactivated FBS, 1× Penicillin/Streptomycin, 1× L-Glutamine, 20 mM HEPES and 1×NEAA (RPMI working medium). Tumor cells were trypsinized and washed two times at 1500 rpm for 5 minutes in RPMI1640 working medium prewarmed to 37° C. Four thousand tumor cells in 25 μl were plated per well in a sterile 384 well cell culture plate. Frozen human PBMCs were thawed and washed one time at 1250 rpm for 5 minutes in prewarmed RPMI1640 working medium. 20000 viable PBMCs in 50 μl RPMI1640 working medium supplemented with 250 ng/ml (2× concentration) of human anti-CD3 (clone OKT3) and 500 ng/ml (2× concentration) of human anti-CD28 (clone CD28.2) were added per respective wells containing tumor cells in 25 μl medium to obtain a […] ratio for tumor cells and PBMCs. Test compounds in DMSO were diluted in RPMI1640 working medium. An equivalent amount of DMSO was added to assay controls. […] Culture supernatant was collected at 48 hours post-treatment, and IL-2 concentrations were measured using HTRF assays (CIS Bio). Data were analyzed using GraphPad Prism.

Row | SMILES | OX40 agonism in co-culture (OX40) | IL-2 levels (human PBMCs; 4T1 cells without Nectin-4 expression) | production of the cytokine IL-2 by human PBMCs (human PBMCs; Nectin-4 expressing 4T1 cells)
1 | CSCC[C@@H]1NC(=O)[C@@H]2CSCCC(=O)N3CN(CN(C3)C(=O)CCSC[C@H](NC(=O)CCOCCOCCOCCOCCOCCOCCOCCOCCOCCOCCOCCOCCn3cc(CCC(=O)NCCCC[C@H](NC(=O)[C@H](C)NC(=O)[C@@H]4CSCCC(=O)N5CN6CN(C5)C(=O)CCSC[C@H](NC(=O)[C@@H]5CCCN5C(=O)[C@H](CO)NC(=O)[C@H](Cc5ccc(O)cc5)NC(=O)[C@H](CC(C)C)NC(=O)[C@@H](NC(=O)[C@H](C)N)CSCCC6=O)C(=O)N[C@@H](Cc5c[nH]c6ccccc56)C(=O)N[C@@H](Cc5c[nH]cn5)C(=O)N5CCC[C@H]5C(=O)N[C@@H](CC(C)C)C(=O)N[C@@H](CC(N)=O)C(=O)N[C@@H](CC(=O)O)C(=O)N4)C(N)=O)nn3)C(=O)N3CCC[C@H]3C(=O)N[C@@H](Cc3cccc4ccccc34)C(=O)N[C@H](CC(=O)O)C(=O)N2)C(=O)CCSC[C@@H](C(N)=O)NC(=O)[C@H](Cc2c[nH]c3ccccc23)NC(=O)[C@@H]2C[C@@H](O)CN2C(=O)[C@@H]2CCCN2C(=O)[C@H]([C@@H](C)O)NC(=O)[C@H](CO)NC(=O)[C@H](Cc2c[nH]c3ccccc23)NC(=O)[C@H](CC(=O)O)NC(=O)[C@H](CCCCNC(=N)N)NC1=O [BCY12141] | potent OX40 agonism | comparable to the control baseline CD3+CD28 stimulation | induced the production of the cytokine IL-2
2 | CSCC[C@@H]1NC(=O)[C@@H]2CSCCC(=O)N3CN(CN(C3)C(=O)CCSC[C@H](NC(=O)CCOCCOCCOCCOCCOCCn3cc(CCC(=O)NCCCC[C@H](NC(=O)[C@H](C)NC(=O)[C@@H]4CSCCC(=O)N5CN6CN(C5)C(=O)CCSC[C@H](NC(=O)[C@@H]5CCCN5C(=O)[C@H](CO)NC(=O)[C@H](Cc5ccc(O)cc5)NC(=O)[C@H](CC(C)C)NC(=O)[C@@H](NC(=O)[C@H](C)NC(C)=O)CSCCC6=O)C(=O)N[C@@H](Cc5c[nH]c6ccccc56)C(=O)N[C@@H](Cc5c[nH]cn5)C(=O)N5CCC[C@H]5C(=O)N[C@@H](CC(C)C)C(=O)N[C@@H](CC(N)=O)C(=O)N[C@@H](CC(=O)O)C(=O)N4)C(N)=O)nn3)C(=O)N3CCC[C@H]3C(=O)N[C@@H](Cc3cccc4ccccc34)C(=O)N[C@H](CC(=O)O)C(=O)N2)C(=O)CCSC[C@@H](C(N)=O)NC(=O)[C@H](Cc2c[nH]c3ccccc23)NC(=O)[C@@H]2C[C@@H](O)CN2C(=O)[C@@H]2CCCN2C(=O)[C@H]([C@@H](C)O)NC(=O)[C@H](CO)NC(=O)[C@H](Cc2c[nH]c3ccccc23)NC(=O)[C@H](CC(=O)O)NC(=O)[C@H](CCCCNC(=N)N)NC1=O [BCY12721] | potent OX40 agonism |  | 
3 | CSCC[C@@H]1NC(=O)[C@@H]2CSCCC(=O)N3CN(CN(C3)C(=O)CCSC[C@H](NC(=O)CCOCCOCCOCCN(CCOCCOCCOCCn3cc(CCC(=O)NCCCC[C@H](NC(=O)[C@H](C)NC(=O)[C@@H]4CSCCC(=O)N5CN6CN(C5)C(=O)CCSC[C@H](NC(=O)[C@@H]5CCCN5C(=O)[C@H](CO)NC(=O)[C@H](Cc5ccc(O)cc5)NC(=O)[C@H](CC(C)C)NC(=O)[C@@H](NC(=O)[C@H](C)N)CSCCC6=O)C(=O)N[C@@H](Cc5c[nH]c6ccccc56)C(=O)N[C@@H](Cc5c[nH]cn5)C(=O)N5CCC[C@H]5C(=O)N[C@@H](CC(C)C)C(=O)N[C@@H](CC(N)=O)C(=O)N[C@@H](CC(=O)O)C(=O)N4)C(N)=O)nn3)CCOCCOCCOCCn3cc(CCC(=O)NCCCC[C@H](NC(=O)[C@H](C)NC(=O)[C@@H]4CSCCC(=O)N5CN6CN(C5)C(=O)CCSC[C@H](NC(=O)[C@@H]5CCCN5C(=O)[C@H](CO)NC(=O)[C@H](Cc5ccc(O)cc5)NC(=O)[C@H](CC(C)C)NC(=O)[C@@H](NC(=O)[C@H](C)N)CSCCC6=O)C(=O)N[C@@H](Cc5c[nH]c6ccccc56)C(=O)N[C@@H](Cc5c[nH]cn5)C(=O)N5CCC[C@H]5C(=O)N[C@@H](CC(C)C)C(=O)N[C@@H](CC(N)=O)C(=O)N[C@@H](CC(=O)O)C(=O)N4)C(N)=O)nn3)C(=O)N3CCC[C@H]3C(=O)N[C@@H](Cc3cccc4ccccc34)C(=O)N[C@H](CC(=O)O)C(=O)N2)C(=O)CCSC[C@@H](C(N)=O)NC(=O)[C@H](Cc2c[nH]c3ccccc23)NC(=O)[C@@H]2C[C@@H](O)CN2C(=O)[C@@H]2CCCN2C(=O)[C@H]([C@@H](C)O)NC(=O)[C@H](CO)NC(=O)[C@H](Cc2c[nH]c3ccccc23)NC(=O)[C@H](CC(=O)O)NC(=O)[C@H](CCCCNC(=N)N)NC1=O [BCY12967] | potent OX40 agonism |  | 

Reference: patent US11613560B2, “Bicyclic peptide ligands specific for OX40” (BicycleTx Limited, priority 2019, dated 2023)
